Measured values from patent US4889871A, “Alkoxy-substituted dihydrobenzopyran-2-carboxylate derivatives” (G. D. Searle & Co., priority 1988, dated 1989).
pIC50: −log10 of the molar value. Like-named read-outs stand apart in the source and are kept apart here.

Key:
guinea pig ileum = molecular target: T1, guinea pig ileum (Cavia porcellus, UniProt Q2NNR5); assay: LTD4 antagonism in guinea pig ileum (contraction); details: for Kb: read-out: Guinea Pig Ileum Contraction pA2 (converted)
T1 construct: from tissue; host or cells: guinea pig ileum segments
T1 sequence (Q2NNR5 1-340): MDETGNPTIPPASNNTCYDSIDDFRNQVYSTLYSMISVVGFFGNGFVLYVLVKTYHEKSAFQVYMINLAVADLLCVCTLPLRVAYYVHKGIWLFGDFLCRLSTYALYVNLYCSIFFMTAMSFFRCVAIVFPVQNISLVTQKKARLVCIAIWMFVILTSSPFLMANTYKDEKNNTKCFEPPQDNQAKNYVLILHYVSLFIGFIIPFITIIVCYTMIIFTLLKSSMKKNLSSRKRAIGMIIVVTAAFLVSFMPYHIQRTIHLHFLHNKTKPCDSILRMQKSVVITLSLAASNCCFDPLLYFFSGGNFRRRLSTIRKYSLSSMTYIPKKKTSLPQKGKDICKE
Description: Fresh segments of guinea pig ileum were suspended in 2 ml. tissue baths containing oxygenated modified Tyrodes solution. […] The ileum segments were washed and rested between exposures to agonist. Following this, the tissues were incubated with a single concentration of test compound and the agonist dose-response procedure was repeated. The dose ration is a measure of the antagonist's ability to shift the agonist dose-response curve to the right. It is derived as the concentration of agonist necessary to reach a given response level in the present (A') versus the absence (A) of antagonist. For example, if the test concentration of compound had no effect on the agonist-induced response (A'=A) the dose-ratio would approximate 1. […] One dose-ratio value is determined for each strip of ileum used to test antagonist. […] Schild analysis examines the linearity of the function described by the dose-ratios written as log (A'/A) versus antagonist concentration. If linearity is confirmed and the slope approximates -1, inhibition is considered to be competitive. […] This value is considered to be a measure of the affinity of the competitive antagonist.

human neutrophils [1] = assay: Modified Boyden chamber chemotaxis (LTB4, human neutrophils); assay type: cell-based; details: Neutrophil
Description: Human neutrophils were isolated from citrated peripheral blood using standard techniques of dextran sedimentation, followed by centrifugation on Histopaque® sterile solution (Sigma) or Ficoll-paque® (Pharmacia) and hypotonic lysis of erythrocytes. A final cell suspension of 3.4×10^6 neutrophils/ml of HEPES-buffered Hanks balanced salt solution (HBSS, pH 7.3) was added to the upper well (0.8 ml) of a modified Boyden chamber (blind well). The lower well (0.2 ml), separated by a polycarbonate membrane (Nuleopore Corp.), contained HBSS or 3×10^-8 M LTB4 in the presence of absence of test compound. Following a 90 minute incubation at 37° C. in 5% CO2 -95% air, cells from the lower well were lysed and nuclei counted in a Model S-Plus-IV Coulter Counter. Percent inhibition was calculated from cell counts corrected for random migration by subtracting the mean of the HBSS control.

human neutrophils [2] = assay: Human neutrophil degranulation assay (LTB4-induced, myeloperoxidase release); assay type: cell-based; details: Table 1, LTB4 (5×10^-8 M)
Description: Neutrophils were purified from venous blood of normal human donors using standard techniques of dextran sedimentation, centrifugation on Ficoll-paque® (Pharmacia) or Histopaque® sterile solution (Sigma) and hypotonic lysis of erythrocytes (Boyum, A., Isolation of Leukocytes From Human Blood: Further Observations. Scand. J. Lab. Clin. Invest., 21 (Suppl. 97): 31, 1968). The purity of isolated neutrophils was >95%.
Neutrophil degranulation was determined by measuring the release of myeloperoxidase activity into the incubation medium. Neutrophils (3×10^6) in 1 ml HBSS solution were preincubated with cytochalasin B (5 μg) at 37° C. for 5 minutes, followed by preincubation with test compounds for 7 minutes. Neutrophils were then incubated for 2 to 20 minutes with either LTB4 (5×10^-8 M) or the chemotactic peptide f-met-leu-phe (5×10^-6 M) to induce degranulation. Following incubation, samples were centrifuged and myeloperoxidase was extracted from the cell pellets by sonication in phosphate buffer containing 0.4% Triton X-100. Triton X-100 was also added to the supernatants to a concentration of 0.4%. The supernatants and the pellet - extracts were then assayed spectrophotometrically for myeloperoxidase activity by determining the rate of decomposition of H2 O2 with o-dianisidine as hydrogen donor as described by Renlund, et al. (Renlund, D. G., MacFarlane, J. L., Christensen, R. D., Lynch, R. E., and Rothstein, G., A Quantitative And Sensitive Method For Measurement Of Myeloperoxidase, Clinical Research 28:75A, 1980). Myeloperoxidase activity released into the supernatant was expressed as the percent of the average total activity (pellet plus supernatant).

LTB4 receptor = molecular target: T2, LTB4 receptor (Homo sapiens, UniProt Q15722); assay: LTB4 receptor binding assay ((3H) LTB4, human neutrophils); details: Table 1
T2 construct: Neutrophils were purified from venous blood of normal human donors; endogenous in cells; host or cells: purified human blood neutrophils (intact cells)
T2 sequence (Q15722 whole entry): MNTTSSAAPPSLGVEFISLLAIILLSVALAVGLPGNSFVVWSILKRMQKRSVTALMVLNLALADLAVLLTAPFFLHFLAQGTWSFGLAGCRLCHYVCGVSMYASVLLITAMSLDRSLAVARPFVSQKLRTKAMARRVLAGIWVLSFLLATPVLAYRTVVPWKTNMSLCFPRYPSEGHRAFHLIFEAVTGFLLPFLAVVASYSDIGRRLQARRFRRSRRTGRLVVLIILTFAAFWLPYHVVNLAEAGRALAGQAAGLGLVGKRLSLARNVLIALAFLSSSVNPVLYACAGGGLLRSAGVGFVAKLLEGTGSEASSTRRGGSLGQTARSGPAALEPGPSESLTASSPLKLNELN
Description: Neutrophils (4-6×10^6) in 1 ml Hanks' balanced salt solution containing 10 mM HEPES buffer (HBSS), pH 7.4 and 30 μM nordihydroguaiaretic acid were incubated with 0.6×10^-9 M (^3 H) LTB4 in the presence or absence of test compounds. The incubation was carried out at 0° C. for 45 minutes and terminated by adding 5 ml of ice-cold HBSS followed by rapid filtration of incubation mixture under vacuum through GF/C glass fiber filters. The filters were further washed with 10 ml HBSS and radioactivity was determined. Specific binding was defined as the difference between total binding and nonspecific binding which was not displaced by 10^-7 M unlabeled LTB4. All data refer to specific binding.

LTD4 receptor = molecular target: T3, LTD4 receptor (Cavia porcellus, UniProt Q2NNR5); assay: LTD4 receptor binding assay using guinea pig lung membrane preparations; details: for Receptor Binding LTD4 IC50: Table 1, results are from Table 3, 10^-5 M
T3 construct: from tissue; host or cells: lung membranes of male Hartley guinea pigs
T3 sequence (Q2NNR5 1-340): T1 sequence (Q2NNR5 1-340)
Description: MEMBRANE PREPARATIONS: For each membrane preparation, 10-11 male Hartley guinea pigs, weighing less than 350 gm, were sacrificed by guillotine. The lungs were rapidly removed and placed in ice-cold 50 mM Trisma 7.0 buffer. After all the lungs were collected, each was probed free of bronchial tissue to at least the level of tertiary branching as observed through a dissecting lamp. The tissue was minced with a razor blade on a damp paper towel and placed into fresh ice-cold Trisma 7.0 buffer. When all the tissues had been processed, they were pooled, drained and weighed. Nine volumes of cold buffer were added and the tissue was polytroned for 6-10 second bursts with a 1 minute cool down period in an ice bath between each burst. The homogenate was filtered through a gauze pad and centrifuged at 1085× g for 15 minutes at 4° C. Supernatants were saved and centrifuged at 40,000× g for 20 minutes at 4° C. This time, supernatants were discarded and the pellets were resuspended in 30-35 ml fresh Trisma 7.0 buffer by 1-10 second bursts with the polytron. The materials were centrifuged again at 40,000× g. Supernatants were again discarded. Each pellet was resuspended again with approximately 7 ml buffer. All this material was pooled into a 100 ml polypropylene container and stirred with a magnetic stirring bar. The tubes were rinsed with small amounts of buffer and the rinse was added to the membrane preparation. The homogenized membranes were aliquoted into 1.5 ml microfuge tubes and frozen at -70° C. Three aliquots were submitted for protein determinations by FPB (fluorescamine protein binding) assay.
Unless otherwise indicated, all binding experiments were performed in a final incubation volume of 250 μl. […] Both materials were received in solutions. […] Both solutions were brought to appropriate assay concentrations by dilution in assay buffer consisting of 50 mM Trisma 7.4 with 5 mM L-cysteine and 20 mM CaCl2. Membranes were also diluted with this assay buffer. […] Diluent was added to all other appropriate control tubes. Incubations were conducted for 30 minutes at 25° C. in a shaking water bath. Termination of the reaction was achieved by pouring the incubate over 2.5 cm Whatman GF/C filters soaked in assay buffer and set over the ports of Millipore filter vacuum manifolds. Filters were rinsed with 4 ml ice cold assay buffer 3 times. The filters were removed, placed in 10 ml Aquasol scintillation cocktail and allowed to cool in the dark for 2 hours prior to counting. All samples were corrected for background and isotope decay before converting DPM determination to mass.
These values were logit-transformed and linear regression was performed on the dose-response data. All dose-response sets used to calculate IC50 values contained data from 3-6 compound concentrations. […] IC50 values were calculated from the regression equation for the line.
male guinea pig lung homogenate which was aliquoted and stored at
-70° C. The particular preparation used to test the compounds of
Protein concentrations in these assays were adjusted
to provide aproximately 0.1 nM receptor in the presence of lnM ^3
HLTD4. Incubation was conducted for 30 min.
at 24° C. and filtration methods were used to separate bound from
tested were intially solubilized in DMSO. Each compound was evaluated at
dose of 10 μM (10^-5 M) in triplicate in 2 separate assays. The

[3] = read-out: LTD4 Receptor Binding Activity
[4] = read-out: LTD4 Receptor Binding Percent Inhibition, Test #1, triplicate, 30 min, 24° C.
[5] = read-out: LTD4 Receptor Binding Percent Inhibition, Test #2, triplicate, 30 min, 24° C.

Compound | Guinea Pig Ileum Contraction pA2 (guinea pig ileum; Table 2, LTD4 agonist) | pIC50 (human neutrophils [1]) | pIC50 (human neutrophils [2]) | pIC50 (LTB4 receptor) | Kb (guinea pig ileum) [nM] | Receptor Binding LTD4 IC50 (LTD4 receptor) | inhibition at 10 µM (LTD4 receptor; [3]) [%] | inhibition at 10 µM (LTD4 receptor; [4]) [%] | inhibition at 10 µM (LTD4 receptor; [5]) [%]
CCCc1c(OCCCCCOc2ccc(C(C)=O)c(OC)c2CCC)ccc2c1OC(C(=O)O)CC2 (stereo not drawn) [Example 15, 7-[[5-(4-acetyl-3-methoxy-2-propylphenoxy)pentyl]oxy]-3,4-dihydro-8-propyl-2H-1-benzopyran-2-carboxylic acid] | Inactive | 5.18 | 5.82 | 6.30 | – | – | – | – | –
CCCc1c(OCCCOc2ccc3c(c2CCC)OC(C(=O)O)CC3)ccc(C(C)=O)c1O (stereo not drawn) [reference compound] | – | – | – | – | 25.1 | – | – | – | –
CCCc1c(OCCCOc2ccc(C(C)=O)c(OC)c2CCC)ccc2c1OC(CCC(=O)O)CC2 (stereo not drawn) [Example 20, 7-[3-(4-acetyl-3-methoxy-2-propylphenoxy)propoxy]-3,4-dihydro-8-propyl-2H-1-benzopyran-2-propanoic acid] | – | 5.77 | 7.40 | 6.30 | 316 | Inactive | < 45 | 13 | 23.5
CCCc1c(OCCCOc2ccc3c(=O)cc(C(=O)O)oc3c2CCC)ccc(C(C)=O)c1OC [Example 7, 7-[3-(4-acetyl-3-methoxy-2-propylphenoxy)propoxy]-4-oxo-8-propyl-4H-1-benzopyran-2-carboxylic acid] | – | 5.44 | 5.43 | 6.30 | 182 | Inactive | < 45 | 28.9 | 34.4
